Reference: the supplement of paper PMC10307832

How the values were obtained:
Test in all cases: relative viability (nuclei count vs DMSO), 5 days (fraction); higher = more cells survive
[1] = compound: CN(C)C[C@@H]1CCn2cc(c3ccccc32)C2=C(C(=O)NC2=O)c2cn(c3ccccc23)CCO1 [Ruboxistaurin] + N=C(N)NC(=N)NCCc1ccccc1 [Phenformin] (partner 250 µM)
How it was run: (§1)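 Five library-drug doses in √10 steps were combined with a fixed anchor-drug dose, or a single drug was given alone, by pin tool to lung cancer cell lines in 1536-well plates the day after seeding. Nuclei were stained and counted after 5 days. Relative viability is the nuclei count in treated wells over that in vehicle wells, taken as the median of duplicate plates.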

[2] = compound: CN(C)C[C@@H]1CCn2cc(c3ccccc32)C2=C(C(=O)NC2=O)c2cn(c3ccccc23)CCO1 [Ruboxistaurin] + CCNC(=O)c1noc(-c2cc(C(C)C)c(O)cc2O)c1-c1ccc(CN2CCOCC2)cc1 [Luminespib] (partner 0.01 µM)
How it was run: as §1

[3] = compound: CN(C)C[C@@H]1CCn2cc(c3ccccc32)C2=C(C(=O)NC2=O)c2cn(c3ccccc23)CCO1 [Ruboxistaurin] + C[C@@H](Oc1cc(-c2cnn(C3CCNCC3)c2)cnc1N)c1c(Cl)ccc(F)c1Cl [Crizotinib] (partner 1 µM)
How it was run: as §1

[4] = compound: CN(C)C[C@@H]1CCn2cc(c3ccccc32)C2=C(C(=O)NC2=O)c2cn(c3ccccc23)CCO1 [Ruboxistaurin] + CS(=O)(=O)N1CCN(Cc2cc3nc(-c4cccc5[nH]ncc45)nc(N4CCOCC4)c3s2)CC1 [Pictilisib] (partner 1 µM)
How it was run: as §1

[5] = compound: CN(C)C[C@@H]1CCn2cc(c3ccccc32)C2=C(C(=O)NC2=O)c2cn(c3ccccc23)CCO1 [Ruboxistaurin] + C[C@]1(O)C[C@@H](c2nc(-c3ccc4ccc(-c5ccccc5)nc4c3)c3c(N)nccn32)C1 [Linsitinib] (partner 1 µM)
How it was run: as §1

| Cell Line | relative viability ([1]; first compound 0.08 µM) | relative viability ([1]; first compound 0.8 µM) | relative viability ([1]; first compound 2.53 µM) | relative viability ([1]; first compound 8 µM) | relative viability ([2]; first compound 0.08 µM) | relative viability ([2]; first compound 0.8 µM) | relative viability ([2]; first compound 2.53 µM) | relative viability ([2]; first compound 8 µM) | relative viability ([3]; first compound 0.08 µM) | relative viability ([3]; first compound 0.8 µM) | relative viability ([3]; first compound 2.53 µM) | relative viability ([3]; first compound 8 µM) | relative viability ([4]; first compound 0.08 µM) | relative viability ([4]; first compound 0.8 µM) | relative viability ([4]; first compound 2.53 µM) | relative viability ([4]; first compound 8 µM) | relative viability ([5]; first compound 0.08 µM) | relative viability ([5]; first compound 0.8 µM) | relative viability ([5]; first compound 2.53 µM) | relative viability ([5]; first compound 8 µM) |
| --- | --- | --- | --- | --- | --- | --- | --- | --- | --- | --- | --- | --- | --- | --- | --- | --- | --- | --- | --- | --- |
| NCI-H647 | 0.656 | 0.483 | 0.599 | 0.409 | 0.17 | 0.114 | 0.217 | 0.232 | 1.03 | 0.849 | 1.15 | 0.995 | 0.53 | 0.37 | 0.417 | 0.258 | 1.2 | 0.923 | 1.24 | 1.02 |
| A-427 | 0.398 | 0.314 | 0.327 | 0.273 | 0.974 | 0.757 | 0.869 | 0.611 | 1.01 | 0.676 | 0.911 | 0.732 | 0.7 | 0.594 | 0.738 | 0.557 | 1.1 | 1.08 | 0.992 | 0.925 |
| LXF-289 | 0.514 | 0.509 | 0.488 | 0.594 | 0.679 | 0.628 | 0.677 | 0.754 | 0.826 | 0.758 | 0.826 | 0.951 | 0.815 | 0.718 | 0.736 | 0.647 | 0.925 | 0.951 | 0.966 | 1.05 |
| NCI-H727 | 0.565 | – | 0.401 | 0.474 | 0.345 | – | 0.355 | 0.323 | 0.789 | 0.696 | 0.693 | 0.745 | 0.563 | 0.244 | 0.433 | 0.284 | 0.312 | 0.288 | 0.296 | 0.267 |
| NCI-H1437 | 0.328 | 0.278 | 0.298 | 0.322 | 1.17 | 1.1 | 1.17 | 1.22 | 0.984 | 0.829 | 0.958 | 1.08 | 0.488 | 0.388 | 0.383 | 0.305 | 1.01 | 0.941 | 1.17 | 0.746 |
| RERF-LC-KJ | 0.458 | 0.426 | 0.443 | 0.406 | 1.23 | 1.08 | 1.36 | 0.965 | 0.811 | 0.766 | 0.812 | 0.926 | 0.508 | 0.499 | 0.472 | 0.359 | 0.877 | 0.857 | 0.932 | 0.956 |
| NCI-H1792 | 0.32 | – | 0.247 | 0.243 | 0.431 | 0.317 | 0.375 | 0.32 | 1.05 | 0.956 | 0.966 | 1.01 | 0.258 | 0.231 | 0.246 | 0.233 | 0.536 | 0.449 | 0.506 | 0.487 |
| HCC-44 | 0.204 | 0.193 | 0.185 | 0.19 | 1.16 | 0.973 | 1.06 | 1.09 | 0.756 | 0.674 | 0.867 | 0.853 | 0.622 | 0.37 | 0.596 | 0.511 | 0.643 | 0.645 | 0.674 | 0.635 |
| EPLC-272H | 0.338 | 0.301 | 0.297 | 0.349 | 0.368 | 0.224 | 0.293 | 0.668 | 0.926 | 0.793 | 0.917 | 0.932 | 0.341 | 0.303 | 0.343 | 0.294 | 1.28 | 1.09 | 1.2 | 1.16 |
| NCI-H358 | 0.32 | 0.255 | 0.293 | 0.263 | 0.498 | 0.32 | 0.242 | 0.386 | 0.518 | 0.517 | 0.609 | 0.573 | 0.326 | 0.297 | 0.3 | 0.235 | 0.835 | 0.59 | 0.63 | 0.367 |
| NCI-H596 | 0.844 | 0.77 | 0.841 | 0.722 | 0.93 | 0.943 | 1.26 | 0.794 | 1.03 | 0.981 | 1.03 | 0.795 | 0.472 | 0.352 | 0.374 | 0.346 | 1.14 | 1.01 | 1.08 | 0.857 |
| NCI-H322M | 0.838 | 0.67 | 0.656 | 0.455 | 0.836 | 0.718 | 0.766 | 0.399 | 0.96 | 0.863 | 0.949 | 1.11 | 0.553 | 0.484 | 0.432 | 0.385 | 0.969 | 0.826 | 0.861 | 0.779 |
| NCI-H1563 | 0.67 | 0.654 | 0.702 | 0.693 | 0.507 | 0.544 | 0.483 | 0.52 | 0.947 | 0.873 | 0.938 | 0.741 | 0.626 | 0.662 | 0.601 | 0.618 | 1.34 | 1.14 | 1.37 | 1.16 |
